SMILES strings stand for the structures. pIC50, pKi: −log10 of the molar value. Read-outs that look alike come from different tables or passages of the source.

Experimental findings from patent US9079866B2, “Flap modulators” (JANSSEN PHARMACEUTICA NV, priority 2013, dated 2015) are described below.

Experiment [1] relates to leukotriene pathway in human whole blood (LTB4 levels). Put plainly: Human whole blood assay (A23187-stimulated LTB4). It counts as cell-based. The note with it: Homo sapiens, read-out: LTB4 IC50 1:1. In outline:
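Heparinised human whole blood, diluted 1:1 in RPMI, was pre-incubated with test compounds for 15 min at 37° Celsius, then stimulated with A23187 (7 μg/mL) for 30 min at 37° Celsius. Plasma LTB4 was measured by immunoassay kit; IC50 from 4-parameter fit; single replicate, at least one healthy donor.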

For another experiment, the target named is human FLAP (Homo sapiens (Human), UniProt P20292). Put plainly: FLAP binding assay (HTRF format). The note with it: wild type FLAP, HTRF format. The method, boiled down:
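Binding of compounds to FLAP read out as HTRF ratio. Values are the mean of two assay plates, each sample run in duplicate per plate.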
In general terms: TR-FRET usually uses a lanthanide donor and a delayed reading to cut background.

[2] abbreviates: human whole blood diluted 1:1, A23187-stimulated.

Chain of human FLAP (P20292 whole entry): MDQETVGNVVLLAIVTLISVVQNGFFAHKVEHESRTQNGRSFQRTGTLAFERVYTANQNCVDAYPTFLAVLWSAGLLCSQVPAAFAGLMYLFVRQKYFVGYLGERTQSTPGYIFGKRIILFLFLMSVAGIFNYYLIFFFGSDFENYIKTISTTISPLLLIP

Broadly, the pIC50 is the IC50 on a negative log10 scale, so that one unit is a factor of ten. For orientation: pKi means −log10 of the Ki, conventionally taken in molar units. Read a low pKi as a high Ki. With `Nc1ncc(-c2ccc(-c3ccc(C(F)(F)F)cc3Oc3ncccn3)cc2F)cn1` [Example 552, 5-[3-Fluoro-2′-(pyrimidin-2-yloxy)-4′-(trifluoromethyl)biphenyl-4-yl]pyrimidin-2-amine], the negative-log IC50 (pIC50) in experiment [1] (setting [2]) is 6.99. Further, the pKi at human FLAP is 8.30.
For `Nc1cnc(-c2ccc(-c3ccc(C(F)(F)F)cc3O)cc2F)cn1` [Example 554, 4′-(5-Aminopyrazin-2-yl)-3′-fluoro-4-(trifluoromethyl)biphenyl-2-ol], in that order: 7.41 and 8.70.
On to `Nc1cnc(-c2ccc(-c3ccc(C(F)(F)F)cc3Oc3ccnc(N)n3)cc2F)cn1` [Example 555, 4-{[4′-(5-Aminopyrazin-2-yl)-3′-fluoro-4-(trifluoromethyl)biphenyl-2-yl]oxy}pyrimidin-2-amine], for which, in experiment [1] (setting [2]), the pIC50 was 7.62. Moreover, the pKi on human FLAP is 8.70.
The matching figures for `Nc1cnc(-c2ccc(-c3ccc(C(F)(F)F)cc3Oc3nccc(N)n3)cc2F)cn1` [Example 556, 2-{[4′-(5-Aminopyrazin-2-yl)-3′-fluoro-4-(trifluoromethyl)biphenyl-2-yl]oxy}pyrimidin-4-amine]: 7.89 and 9.00.
`C[Si](C)(C)CCOCOc1cc(C(F)(F)F)ccc1-c1ccc(-c2cnc(N)nc2)c(F)c1` [Example 557, 5-[3-Fluoro-4′-(trifluoromethyl)-2′-{[2-(trimethylsilyl)ethoxy]methoxy}biphenyl-4-yl]-pyrimidin-2-amine]: the pIC50 in experiment [1] is 5.97. At human FLAP, this compound gave a pKi of 6.83.
Turning to `Nc1ncc(-c2ccc(-c3ccc(C(F)(F)F)cc3O)cc2F)cn1` [Example 558, 4′-(2-Aminopyrimidin-5-yl)-3′-fluoro-4-(trifluoromethyl)biphenyl-2-ol], the pIC50 in experiment [1] (setting [2]) was 6.68. Besides, the negative logarithm of the Ki (pKi) at human FLAP was 7.92.
`Nc1ccnc(Oc2cc(C(F)(F)F)ccc2-c2ccc(-c3cnc(N)nc3)c(F)c2)n1` [Example 559, 5-{2′-[(4-Aminopyrimidin-2-yl)oxy]-3-fluoro-4′-(trifluoromethyl)biphenyl-4-yl}pyrimidin-2-amine]: the pIC50 in experiment [1] (setting [2]) is 7.26. Moreover, the pKi at human FLAP was 8.70.
For `Nc1ncc(-c2ccc(-c3ccc(C(F)(F)F)cc3Oc3ccnc(N)n3)cc2F)cn1` [Example 560, 4-{[4′-(2-Aminopyrimidin-5-yl)-3′-fluoro-4-(trifluoromethyl)biphenyl-2-yl]oxy}pyrimidin-2-amine], in that order: 7.02 and 8.30.
The matching figures for `Nc1cc(Oc2cc(C(F)(F)F)ccc2-c2ccc(-c3cnc(N)nc3)c(F)c2)ncn1` [Example 561, 5-{2′-[(6-Aminopyrimidin-4-yl)oxy]-3-fluoro-4′-(trifluoromethyl)biphenyl-4-yl}pyrimidin-2-amine]: 7.37 and 8.40.
As for `Nc1cnc(-c2ccc(-c3ccc(C(F)(F)F)cc3C(F)(F)F)cc2F)cn1` [Example 562, 5-[3-Fluoro-2′,4′-bis(trifluoromethyl)biphenyl-4-yl]pyrazin-2-amine], in experiment [1] (setting [2]), the pIC50 is 6.65. On human FLAP, this compound showed a pKi of 7.26.
`N#Cc1cc(C(F)(F)F)ccc1-c1ccc(-c2cnc(N)cn2)c(F)c1` [Example 563, 4′-(5-Aminopyrazin-2-yl)-3′-fluoro-4-(trifluoromethyl)biphenyl-2-carbonitrile]: in experiment [1] (setting [2]), the pIC50 was 6.48. Further, at human FLAP, the pKi was 7.70.
The matching figures for `Nc1ncc(-c2ccc(-c3ccc(C(F)(F)F)cc3Oc3ncccn3)cn2)cn1` [Example 564, 5-{5-[2-(Pyrimidin-2-yloxy)-4-(trifluoromethyl)phenyl]pyrridn-2-yl}pyrimidin-2-amine]: 6.23 and 6.70.
Take `Nc1ncc(-c2ccc(-c3ccc(C(F)(F)F)cc3Oc3ccnc(N)n3)cn2)cn1` [Example 565, 4-{2-[6-(2-Aminopyrimidin-5-yl)pyridin-3-yl]-5-(trifluoromethyl)phenoxy}pyrimidin-2-amine]: the pIC50 in experiment [1] (setting [2]) was 6.01. On human FLAP, this compound showed a pKi of 7.09.
For the compound `Cc1cc(-c2ccccc2S(=O)(=O)NC(C)(C)C)ccc1-c1cnc(N)cn1` [Example 569, 4′-(5-Aminopyrazin-2-yl)-N-tert-butyl-3′-methylbiphenyl-2-sulfonamide], the negative logarithm of the IC50 (pIC50) in experiment [1] (setting [2]) is 6.47. Moreover, the pKi at human FLAP is 7.15.
The matching figures for `COc1cc(-c2ccccc2S(=O)(=O)NC(C)(C)C)ccc1-c1cnc(N)cn1` [Example 570, 4′-(5-Aminopyrazin-2-yl)-N-tert-butyl-3′-methoxybiphenyl-2-sulfonamide]: 5.93 and 7.46.
The matching figures for `CC(C)(C)NS(=O)(=O)c1ccccc1-c1ccc(-c2cnc(N)cn2)cc1` [Example 571, 4′-(5-Aminopyrazin-2-yl)-N-tert-butylbiphenyl-2-sulfonamide]: 7.04 and 8.70.
On to `CC(C)(C)NS(=O)(=O)c1ccccc1-c1ccc(-c2cnc(N)cn2)cc1F` [Example 574, 4′-(5-Aminopyrazin-2-yl)-N-tert-butyl-2′-fluorobiphenyl-2-sulfonamide], for which, in experiment [1] (setting [2]), the pIC50 is 6.31. At human FLAP, this compound had a pKi of 7.82.
For `CC(C)(C)NS(=O)(=O)c1ccccc1-c1ccc(-c2coc(N)n2)c(F)c1` [Example 576, 4′-(2-Amino-1,3-oxazol-4-yl)-N-tert-butyl-3′-fluorobiphenyl-2-sulfonamide], in that order: 6.94 and 8.10.
In the case of `CC(C)(C)NS(=O)(=O)c1ccccc1-c1ccc(-c2csc(N)n2)c(F)c1` [Example 577, 4′-(2-Amino-1,3-thiazol-4-yl)-N-tert-butyl-3′-fluorobiphenyl-2-sulfonamide], the pIC50 in experiment [1] (setting [2]) is 7.04. Moreover, the pKi on human FLAP is 8.00.
As to `CCN(CC)S(=O)(=O)c1ccccc1-c1ccc(-c2csc(N)n2)c(F)c1` [Example 578, 4′-(2-Amino-1,3-thiazol-4-yl)-N,N-diethyl-3′-fluorobiphenyl-2-sulfonamide], in experiment [1] (setting [2]), the pIC50 was 6.02. The compound also gave a pKi at human FLAP of 7.60.
For `CC(C)(C)NS(=O)(=O)c1ccccc1-c1ccc(-c2cn3cccc(F)c3n2)c(F)c1` [Example 580, N-tert-Butyl-3′-fluoro-4′-(8-fluoroimidazo[1,2-a]pyridin-2-yl)biphenyl-2-sulfonamide], in that order: 5.30 and 7.26.
Regarding `CC(C)(C)NS(=O)(=O)c1ccccc1-c1ccc(-c2cn3c(N)cccc3n2)c(F)c1` [Example 581, 4′-(5-Aminoimidazo[1,2-a]pyridin-2-yl)-N-tert-butyl-3′-fluorobiphenyl-2-sulfonamide], the pIC50 in experiment [1] (setting [2]) was 5.55. For the same compound, the pKi at human FLAP was 7.22.
On to `COc1cccc2nc(-c3ccc(-c4ccccc4S(=O)(=O)NC(C)(C)C)cc3F)cn12` [Example 588, N-tert-Butyl-3′-fluoro-4′-(5-methoxyimidazo[1,2-a]pyridin-2-yl)biphenyl-2-sulfonamide], for which the pIC50 in experiment [1] (setting [2]) is less than 5.00. The pKi on human FLAP is 6.88.
Regarding `Nc1cnc(-c2ccc(-c3ccccc3-c3ccc(-c4cnc(N)cn4)c(F)c3)cc2F)cn1` [Example 602, 5,5′-(3,3″-Difluoro-1,1′:2′,1″-terphenyl-4,4″-diyl)dipyrazin-2-amine], the negative-log IC50 (pIC50) in experiment [1] (setting [2]) is 7.78. In addition, the pKi at human FLAP is 9.22.
The matching figures for `Nc1cnc(-c2ccc(-c3ccc(C(F)(F)F)cc3C(=O)O)cc2F)cn1` [Example 603, 4′-(5-Aminopyrazin-2-yl)-3′-fluoro-4-(trifluoromethyl)biphenyl-2-carboxylic acid]: less than 5.00 and 7.56.
